Test system: E. coli strain IPTG/GFP
Assay: GFP induction by cured chemical signaling resin in the IPTG/GFP reporter strain
Assay type: cell-based
Conditions: IPTG 2.0 M, after UV-curing
From the text: In some use cases, this prototype facilitates fluorometric assays of gene expression as follows: Strains with fluorescent protein outputs are constructed. The strains IPTG/GFP, AHL/GFP, and RHA/GFP each express a green fluorescent protein (GFP) under the control of promoters LacI, LuxR, and RhaBAD when induced by the chemicals IPTG, N-acyl homoserine lactone (AHL), Rhamnose (RHA), respectively. For orthogonal AHL and IPTG patterning, the strain AHL/RFP is also cloned to produce a differentiable red fluorescent protein (RFP) under AHL-inducible control. Also, gene constructs using combinatorial promoters (where IPTG.AHL/GFP equated to NAND logic function and IPTG.AHL/GFP equated to AND logic function) were cloned for HLM objects performing spatial patterning from two-input cell logic. These transcriptional regulators may be utilized for multi-signal pattern generation.
In a test of this prototype, different photopolymer resins (with embedded chemical signaling molecules) were created by mixing incremental concentrations and ratios of DMSO-solubilized inducer, IPTG, and uncured resin in low light. To rapidly manufacture test pieces, a VeroClear™ RGD810 tray was printed with 3×3 circular wells (10 mm diameter, 3 mm depth). […]

CC(C)S[C@@H]1O[C@H](CO)[C@H](O)[C@H](O)[C@H]1O [IPTG, Isopropyl β-D-1-thiogalactopyranoside]
induction in E. coli strain IPTG/GFP: robust induction

Reference: patent US20190276793A1, “Methods and Apparatus for Regulation of Gene Expression Across a Large-Scale Solid Structure” (Massachusetts Institute of Technology, priority 2018, published 2019)
